The record followed here is US10626095B2, “Cyanotriazole compounds” (OTSUKA PHARMACEUTICAL CO., LTD., priority 2013, dated 2020).

Data set [1] deals with NaCT-CHO (CHO cells stably expressing human NaCT). As to the kind of experiment: Assay of the citric acid cycle activation ([1,5-14C]-citric acid, diffusion of [14C]-CO2). Format: cell-based. Particulars: 1 hour incubation at 37° C. with [1,5-14C]-citric acid. In outline: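 NaCT-CHO cells (pME-CHO empty-vector cells for non-specific counts) were incubated 1 h at 37 °C in Na+-containing HEPES-Tris pH 7.4 with compound plus an equal volume of 0.4 mM [1,5-14C]-citric acid solution. Residual cell radioactivity was counted, [14C]-CO2 diffusion was taken as (Total−R)/(Total−NS)×100%, and EC50 was derived by regression.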

Data set [2] deals with Zucker Diabetic Fatty (ZDF) rat. As to the kind of experiment: Meal load test in type 2 diabetic model rats (postprandial blood glucose). Format: in vivo. To be noted: ZDF rats fasted overnight, oral 10 mg/kg in 5% Arabia gum, blood glucose one hour after meal loading (50 kcal/kg). More on the design: unit not given here. In outline:
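Overnight-fasted (17 h) ZDF rats, n=6 per group, given compound at 10 or 30 mg/kg orally in 5% Arabia gum 2 h before or just before a 50 kcal/kg AIN-93G meal load. Blood glucose at 1 h; effect expressed as BG1h difference from vehicle.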

On to `N#Cc1[nH]nnc1-c1cc(Cl)cc(-c2cc3ccccc3s2)c1` [Example 718, 5-(3-benzo[b]thiophen-2-yl-5-chloro-phenyl)-3H-[1,2,3]triazole-4-carbonitrile], for which the melting point (usually the temperature, or range, at which the solid turns liquid) lay in the range of 231 to 233 °C. Moreover, the EC50 (as a rule, the concentration giving half of the maximal effect) in data set [1] is 1.51 µM. Also, the “BG1h (BG1h difference between compound group and vehicle group)” value in data set [2] is listed as −147.5.
The corresponding values for `Cc1cc(/C=C/c2cccc(-c3nn[nH]c3C#N)c2)ccc1F` [Example 607, 5-{3-[(E)-2-(4-fluoro-3-methyl-phenyl)-vinyl]-phenyl}-3H-[1,2,3]triazole-4-carbonitrile] are 194 to 196 °C, 0.45 µM and −106.8.
For `Cc1cc(-c2nn[nH]c2C#N)ccc1-c1nccc(C(F)(F)F)n1` [Example 989, 5-[3-methyl-4-(4-trifluoromethyl-pyrimidin-2-yl)-phenyl]-3H-[1,2,3]triazole-4-carbonitrile] the same measures were 214 to 218 °C, 0.8 µM and −116.0.
`Cc1sc(-c2ccc(C(F)(F)F)cc2)nc1-c1nn[nH]c1C#N` [Example 92, 5-[5-methyl-2-(4-trifluoromethyl-phenyl)-thiazol-4-yl]-3H-[1,2,3]triazole-4-carbonitrile] had an EC50 in data set [1] of 0.82 µM. Besides, the “BG1h (BG1h difference between compound group and vehicle group)” value in data set [2] was −69.2.
Take `N#Cc1[nH]nnc1-c1ccc(/C=C/c2ccc(F)cc2)o1` [Example 1505, 5-{5-[(E)-2-(4-fluoro-phenyl)-vinyl]-furan-2-yl}-3H-[1,2,3]triazole-4-carbonitrile]: in data set [1], the EC50 turned out to be 0.42 µM. Moreover, the “BG1h (BG1h difference between compound group and vehicle group)” value in data set [2] is −123.5.
Consider `N#Cc1[nH]nnc1-c1cc(Cl)cc(/C=C/c2cccc(C(F)(F)F)c2)c1` [Example 47, 5-{3-chloro-5-[(E)-2-(3-trifluoromethyl-phenyl)-vinyl]-phenyl}-3H-[1,2,3]triazole-4-carbonitrile], for which, in data set [1], the response was half-maximal at 1.07 µM (EC50). Also, in data set [2], the “BG1h (BG1h difference between compound group and vehicle group)” value was −89.7.
Take `N#Cc1[nH]nnc1-c1csc(-c2cccc(C(F)(F)F)c2)n1` [Example 78, 5-[2-(3-trifluoromethyl-phenyl)-thiazol-4-yl]-3H-[1,2,3]triazole-4-carbonitrile]: the midpoint of the response in data set [1], the EC50, lay at 0.51 µM. Besides, in data set [2], the “BG1h (BG1h difference between compound group and vehicle group)” value is reported as −93.7.
For `N#Cc1[nH]nnc1-c1csc(-c2ccc(Cl)cc2)n1` [Example 75, 5-[2-(4-chloro-phenyl)-thiazol-4-yl]-3H-[1,2,3]triazole-4-carbonitrile] the same measures were 0.88 µM and −83.2.
The corresponding values for `CCc1sc(-c2ccc(Cl)cc2)nc1-c1nn[nH]c1C#N` [Example 98, 5-[2-(4-chloro-phenyl)-5-ethyl-thiazol-4-yl]-3H-[1,2,3]triazole-4-carbonitrile] are 0.59 µM and −87.9.
With `N#Cc1[nH]nnc1-c1cccc(/C=C/c2cc3ccccc3s2)c1` [Example 1004, 5-[3-((E)-2-benzo[b]thiophen-2-yl-vinyl)-phenyl]-3H-[1,2,3]triazole-4-carbonitrile], the EC50 in data set [1] was 1.8 µM. Further, the “BG1h (BG1h difference between compound group and vehicle group)” value in data set [2] is listed as −89.8.
On to `N#Cc1[nH]nnc1-c1cc(-c2cccc(C(F)(F)F)n2)cc(C(F)(F)F)c1` [Example 14, 5-[3-trifluoromethyl-5-(6-trifluoromethyl-pyridin-2-yl)-phenyl]-3H-[1,2,3]triazole-4-carbonitrile], for which the response in data set [1] was half-maximal at 0.5 µM (EC50). Also, in data set [2], the “BG1h (BG1h difference between compound group and vehicle group)” value is −79.2.
In data set [1], `N#Cc1[nH]nnc1-c1nc(-c2cccc(C(F)(F)F)c2)oc1C1CC1` [Example 120, 5-[5-cyclopropyl-2-(3-trifluoromethyl-phenyl)-oxazol-4-yl]-3H-[1,2,3]triazole-4-carbonitrile] registered an EC50 of 0.89 µM. The “BG1h (BG1h difference between compound group and vehicle group)” value in data set [2] was −114.3.
The corresponding values for `Cc1cc(-c2ccc(C(F)(F)F)cn2)cc(-c2nn[nH]c2C#N)c1` [Example 807, 5-[3-methyl-5-(5-trifluoromethyl-pyridin-2-yl)-phenyl]-3H-[1,2,3]triazole-4-carbonitrile] are 1.1 µM and −94.5.
The corresponding values for `N#Cc1[nH]nnc1-c1cccc(/C=C/c2cccc(C(F)(F)F)c2)c1` [Example 613, 5-{3-[(E)-2-(3-trifluoromethyl-phenyl)-vinyl]-phenyl}-3H-[1,2,3]triazole-4-carbonitrile] are 0.43 µM and −138.8.
The corresponding values for `N#Cc1[nH]nnc1-c1ccc2ccn(CCCC(F)(F)F)c2c1` [Example 146] are 0.41 µM and −94.9.
In the case of `N#Cc1ccc(/C=C/c2cccc(-c3nn[nH]c3C#N)c2)cc1` [Example 41, 5-{3-[(E)-2-(4-cyano-phenyl)-vinyl]-phenyl}-3H-[1,2,3]triazole-4-carbonitrile], a half-maximal effect in data set [1] (EC50) was put at 0.39 µM. Moreover, the “BG1h (BG1h difference between compound group and vehicle group)” value in data set [2] was −158.0.
For `N#Cc1[nH]nnc1-c1cc(N2CCCC2)nc(-c2ccccc2)n1` [Example 1676, 5-(2-phenyl-6-(pyrrolidin-1-yl)-pyrimidin-4-yl)-3H-[1,2,3]triazole-4-carbonitrile] the same measures were 2.22 µM and −49.5.
For `N#Cc1[nH]nnc1-c1cc(Cl)cc(-c2nccc(C(F)(F)F)n2)c1` [Example 23, 5-[3-chloro-5-(4-trifluoromethyl-pyrimidin-2-yl)-phenyl]-3H-[1,2,3]triazole-4-carbonitrile] the same measures were 0.45 µM and −137.0.
In data set [1], `N#Cc1[nH]nnc1-c1cccc(/C=C/c2cncc(C(F)(F)F)c2)c1` [Example 49, 5-{3-[(E)-2-(5-trifluoromethyl-pyridin-3-yl)-vinyl]-phenyl}-3H-[1,2,3]triazole-4-carbonitrile] gave an EC50 of 0.48 µM. In addition, the “BG1h (BG1h difference between compound group and vehicle group)” value in data set [2] is listed as −78.7.
The corresponding values for `N#Cc1[nH]nnc1-c1cccc(OCc2ccc(C(F)(F)F)c(C(F)(F)F)c2)c1` [Example 423, 5-[3-(3,4-bis-trifluoromethyl-benzyloxy)-phenyl]-3H-[1,2,3]triazole-4-carbonitrile] are 0.92 µM and −87.6.
For `N#Cc1[nH]nnc1-c1cc(Cl)cc(/C=C/c2ccc(F)cc2)c1` [Example 623, 5-{3-chloro-5-[(E)-2-(4-fluoro-phenyl)-vinyl]-phenyl}-3H-[1,2,3]triazole-4-carbonitrile] the same measures were 0.69 µM and −111.2.
Take `N#Cc1[nH]nnc1-c1cc(Cl)cc(/C=C/c2cccc(OC(F)(F)F)c2)c1` [Example 649, 5-{3-chloro-5-[(E)-2-(3-trifluoromethoxy-phenyl)-vinyl]-phenyl}-3H-[1,2,3]triazole-4-carbonitrile]: a half-maximal response in data set [1] (EC50) required 2.47 µM. Besides, the “BG1h (BG1h difference between compound group and vehicle group)” value in data set [2] was −99.4.
For `Cc1cc(-c2nccc(C(F)(F)F)n2)cc(-c2nn[nH]c2C#N)c1` [Example 22, 5-[3-methyl-5-(4-trifluoromethyl-pyrimidin-2-yl)-phenyl]-3H-[1,2,3]triazole-4-carbonitrile] the same measures were 0.65 µM and −108.5.
In data set [1], `COc1cc(/C=C/c2cccc(C(F)(F)F)c2)cc(-c2nn[nH]c2C#N)c1` [Example 657, 5-{3-methoxy-5-[(E)-2-(3-trifluoromethyl-phenyl)-vinyl]-phenyl}-3H-[1,2,3]triazole-4-carbonitrile] had an EC50 of 1.16 µM. Also, the “BG1h (BG1h difference between compound group and vehicle group)” value in data set [2] was −120.5.
For `N#Cc1[nH]nnc1-c1cc(OC(F)(F)F)cc(-c2ccc(OC(F)(F)F)c(F)c2)c1` [Example 298, 5-(3′-fluoro-5,4′-bis-trifluoromethoxy-biphenyl-3-yl)-3H-[1,2,3]triazole-4-carbonitrile] the same measures were 0.74 µM and −62.8.
In turn, `N#Cc1[nH]nnc1-c1cccc(/C=C/c2cc(F)cc(C(F)(F)F)c2)c1` [Example 659, 5-{3-[(E)-2-(3-fluoro-5-trifluoromethyl-phenyl)-vinyl]-phenyl}-3H-[1,2,3]triazole-4-carbonitrile] returned an EC50 in data set [1] of 0.81 µM. Besides, the “BG1h (BG1h difference between compound group and vehicle group)” value in data set [2] is recorded as −161.2.
`N#Cc1[nH]nnc1-c1cc(/C=C/c2cccc(C(F)(F)F)c2)cc(C(F)(F)F)c1` [Example 620, 5-{3-trifluoromethyl-5-[(E)-2-(3-trifluoromethyl-phenyl)-vinyl]-phenyl}-3H-[1,2,3]triazole-4-carbonitrile]: the EC50 in data set [1] stood at 1.45 µM. Also, the “BG1h (BG1h difference between compound group and vehicle group)” value in data set [2] is given as −159.7.
The corresponding values for `N#Cc1[nH]nnc1-c1cccc(/C=C/c2ccc(F)c(C(F)(F)F)c2)c1` [Example 663, 5-{3-[(E)-2-(4-fluoro-3-trifluoromethyl-phenyl)-vinyl]-phenyl}-3H-[1,2,3]triazole-4-carbonitrile] are 1.25 µM and −149.5.
In data set [1], `Cc1sc(-c2ccc(F)c(Cl)c2)nc1-c1nn[nH]c1C#N` [Example 90, 5-[2-(3-chloro-4-fluoro-phenyl)-5-methyl-thiazol-4-yl]-3H-[1,2,3]triazole-4-carbonitrile] came in with an EC50 of 0.56 µM. Moreover, the “BG1h (BG1h difference between compound group and vehicle group)” value in data set [2] was −119.0.
